Results reported in patent US7138414B2, “Heterocyclically substituted benzoylureas, process for their preparation and their use as pharmaceuticals” (Sanofi-Aventis Deutschland GmbH, priority 2002, dated 2006).

Columns and labels:
[1] = target: T1, human glycogen phosphorylase a (Homo sapiens, UniProt P06737); assay: Glycogen phosphorylase a activity test (reverse direction, release of inorganic phosphate); format: biochemical; details: 10 μM test substance, duplicate determinations, 40 min at room temperature
T1 sequence (P06737 2-847 limits assumed): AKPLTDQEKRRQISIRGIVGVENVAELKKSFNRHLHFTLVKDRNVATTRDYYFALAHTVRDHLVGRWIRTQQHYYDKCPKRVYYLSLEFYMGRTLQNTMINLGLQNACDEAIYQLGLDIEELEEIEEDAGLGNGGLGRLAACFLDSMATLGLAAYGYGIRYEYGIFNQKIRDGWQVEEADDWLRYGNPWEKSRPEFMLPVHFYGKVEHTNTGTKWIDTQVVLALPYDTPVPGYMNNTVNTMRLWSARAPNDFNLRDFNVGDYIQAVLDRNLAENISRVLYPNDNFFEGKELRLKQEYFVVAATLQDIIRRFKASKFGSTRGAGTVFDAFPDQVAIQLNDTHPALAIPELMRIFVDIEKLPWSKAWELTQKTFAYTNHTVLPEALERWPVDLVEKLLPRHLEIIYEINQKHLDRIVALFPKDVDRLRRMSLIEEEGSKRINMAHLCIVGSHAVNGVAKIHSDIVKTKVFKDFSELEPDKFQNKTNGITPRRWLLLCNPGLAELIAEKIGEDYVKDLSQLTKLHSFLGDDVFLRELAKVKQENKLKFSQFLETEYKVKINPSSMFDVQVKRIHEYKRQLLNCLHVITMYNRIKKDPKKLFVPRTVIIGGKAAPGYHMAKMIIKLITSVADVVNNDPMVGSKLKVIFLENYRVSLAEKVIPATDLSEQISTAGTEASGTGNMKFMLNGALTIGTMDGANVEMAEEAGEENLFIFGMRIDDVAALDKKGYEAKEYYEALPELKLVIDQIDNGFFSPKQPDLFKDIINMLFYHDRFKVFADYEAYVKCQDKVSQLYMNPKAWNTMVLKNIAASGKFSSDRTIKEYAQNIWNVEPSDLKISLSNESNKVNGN
Method: Glycogen Phophorylase a Activity Test
All reactions were carried out as duplicate determinations in 96-well microtiter plates (half area plates, Costar No. 3696), and the change in absorption as a consequence of the formation of the reaction product was measured at the wavelength specified below in a Multiskan Ascent Elisa Reader (Lab Systems, Finland).
In order to measure the GPa enzyme activity in the reverse direction, the conversion of glucose 1-phosphate to glycogen and inorganic phosphate was measured by the general method of Engers et al. (Engers H D, Shechosky S, Madsen N B, Can J Biochem 1970 July;48(7):746–754) with the following modifications: human glycogen phosphorylase a (for example containing 0.76 mg of protein/ml (Aventis Pharma Deutschland GmbH), dissolved in buffer solution E (25 mM β-glycerophosphate, pH 7.0, 1 mM EDTA and 1 mM dithiothreitol) was diluted to a concentration of 10 μg of protein/ml with buffer T (50 mM Hepes, pH 7.0, 100 mM KCl, 2.5 mM EDTA, 2.5 mM MgCl26H2O) and addition of 5 mg/ml of glycogen. Test substances were prepared as a 10 mM solution in DMSO and diluted to 50 μM with buffer solution T. To 10 μl of this solution were added 10 μl of 37.5 mM glucose dissolved in buffer solution T and 5 mg/ml of glycogen, and also 10 μl of a solution of human glycogen phosphorylase a (10 μg of protein/ml) and 20 μl of 2.5 mM glucose 1-phosphate. The base value of the activity of glycogen phosphorylase a in the absence of test substance was determined by adding 10 μl of buffer solution T (0.1% DMSO). The mixture was incubated at room temperature for 40 minutes and the released inorganic phosphate was determined by means of the general method of Drueckes et al. (al (Drueckes P, Schinzel R, Palm D, Anal Biochem 1995 Sep. 1;230(1):173–177) with the following modifications: 50 μl of a stop solution of 7.3 mM of ammonium molybdate, 10.9 mM of zinc acetate, 3.6% of ascorbic acid, 0.9% of SDS are added to 50 μl of the enzyme mixture. After 60 minutes of incubation at 45° C., the absorption was measured at 820 nm. To determine the background absorption, the stop solution was added immediately after the addition of the glucose 1-phosphate solution in a separate reaction. This test was carried out at a concentration of 10 μM of the test substance, in order to determine the respective inhibition of glycogen phosphorylase a by the test substance in vitro.

[2] = target: T1, human glycogen phosphorylase a; assay: as above; format: biochemical; details: 10 μM test substance; duplicate determinations; 40 min at room temperature

Row | Compound | melting point | % inhibition at 10 μM [1] | IC50 at 10 μM [2] | % inhibition at 10 μM ([1]; 10 µM)
1 | O=C(NC(=O)c1cc(F)c(F)cc1Cl)Nc1cc(F)ccc1N1CCC(C(=O)[O-])CC1.[Na+] | 160.9 °C | – | – | –
2 | O=C(NC(=O)c1cc(F)c(F)cc1Cl)Nc1ccc(-c2n[nH]c(O)n2)cc1OC(F)(F)F [Example 6f, 1-(2-chloro-4,5-difluorobenzoyl)-3-[2-trifluoromethoxy-4-(5-hydroxy-1H-[1,2,4]triazol-3-yl)phenyl]urea] | > 350 °C | 98% | – | –
3 | O=C(NC(=O)c1ccc(F)cc1Cl)Nc1ccccc1-c1nnc(O)o1 [Example 8d, 1-(2-chloro-4-fluorobenzoyl)-3-[2-(5-hydroxy-[1,3,4]oxadiazol-2-yl)phenyl]urea] | 229.7 °C | 100% | – | –
4 | COc1cc(-c2nnc(O)o2)ccc1NC(=O)NC(=O)c1cc(F)c(F)cc1Cl [Example 8e, 1-(2-chloro-4,5-difluorobenzoyl)-3-[4-(5-hydroxy-[1,3,4]oxadiazol-2-yl)-2-methoxyphenyl]urea] | 293.1 °C | 97% | – | –
5 | O=C(NC(=O)c1cc(F)c(F)cc1Cl)Nc1ccccc1-c1nnc(O)o1 [Example 8f, 1-(2-chloro-4,5-difluorobenzoyl)-3-[2-(5-hydroxy-[1,3,4]oxadiazol-2-yl)phenyl]urea] | 222.9 °C | 99% | – | –
6 | O=C(NC(=O)c1ccc(F)cc1Cl)Nc1ccccc1-c1nnco1 [Example 8g, 1-(2-chloro-4-fluorobenzoyl)-3-(2-[1,3,4]oxadiazol-2-ylphenyl)urea] | 204 °C | 98% | – | –
7 | O=C(NC(=O)c1cc(F)c(F)cc1Cl)Nc1ccccc1-c1nnco1 [Example 8h, 1-(2-chloro-4,5-difluorobenzoyl)-3-(2-[1,3,4]oxadiazol-2-ylphenyl)urea] | 199.6 °C | 100% | – | –
8 | CNc1nn(-c2ccc(NC(=O)NC(=O)c3ccc(F)cc3Cl)c(C)c2)c(=O)o1 [Example 9f, 1-(2-chloro-4-fluorobenzoyl)-3-(2-methyl-4-(5-methylamino-2-oxo-3H-[1,3,4]-oxadiazol-3-yl)phenyl)urea] | 198 °C | 54% | – | –
9 | O=C(NC(=O)c1ccc(F)cc1Cl)Nc1ccc(-c2noc(=O)[nH]2)cc1OC(F)(F)F [Example 11e, 1-(2-chloro-4-fluorobenzoyl)-3-[4-(5-oxo-4,5-dihydro-[1,2,4]oxadiazol-3-yl)-2-trifluoromethoxyphenyl]urea] | 230.1 °C | 98% | – | –
10 | O=C(NC(=O)c1ccc(F)cc1Cl)Nc1ccc(-c2noc(=O)[nH]2)cc1Cl [Example 11f, 1-(2-chloro-4-fluorobenzoyl)-3-[2-chloro-4-(5-oxo-4,5-dihydro-[1,2,4]oxadiazol-3-yl)phenyl]urea] | 243.6 °C | 98% | – | –
11 | O=C(NC(=O)c1cc(F)c(F)cc1Cl)Nc1ccccc1-c1ccc(C(=O)O)o1 [Example 13b, 5-{2-[3-(2-chloro-4,5-difluorobenzoyl)ureido]phenyl}furan-2-carboxylic acid] | 239.3 °C | 100% | – | –
12 | O=C(NC(=O)c1ccc(F)cc1Cl)Nc1ccccc1-c1ccc(C(=O)O)o1 [Example 13c, 5-{2-[3-(2-chloro-4-fluorobenzoyl)ureido]phenyl}furan-2-carboxylic acid] | 236.3 °C | 100% | – | –
13 | NC(=O)C1CCCN(c2ccc(F)cc2NC(=O)NC(=O)c2cc(F)c(F)cc2Cl)C1 (stereo not drawn) [Example 15c, 1-{2-[3-(2-chloro-4,5-difluorobenzoyl)ureido]-4-fluorophenyl}piperidine-3-carboxamide] | 216 °C | 0.3% | – | –
14 | O=C(NC(=O)c1cc(F)c(F)cc1Cl)Nc1cc(F)ccc1N1CCC(C(=O)O)CC1 [Example 16c, 1-{2-[3-(2-chloro-4,5-difluorobenzoyl)ureido]-4-fluorophenyl}piperidine-4-carboxylic acid] | 221.7 °C | – | – | –
15 | O=C(NC(=O)c1cc(F)c(F)cc1Cl)Nc1cc(F)ccc1N1CCCC(C(=O)O)C1 (stereo not drawn) [Example 17] | – | – | 10 nM | –
16 | COC(=O)C1CCN(c2ccc(Cl)cc2NC(=O)NC(=O)c2cc(F)c(F)cc2Cl)CC1 [Example 29] | – | – | 10 nM | –
17 | O=C(NC(=O)c1cc(F)c(F)cc1Cl)Nc1cc(Cl)ccc1N1CCCC(C(=O)O)C1 (stereo not drawn) [Example 31] | – | – | 10 nM | –
18 | CCN(CC)C(=O)C1CCCN(c2ccc(F)cc2NC(=O)NC(=O)c2cc(F)c(F)cc2Cl)C1 (stereo not drawn) [Example 37] | – | 3.9% | – | –
19 | CCN(CC)C(=O)C1CCCN(c2ccc(F)cc2NC(=O)NC(=O)c2ccc(F)cc2Cl)C1 (stereo not drawn) [Example 38] | – | 4.6% | – | –
20 | COC(=O)C1CCN(c2ccc(F)cc2NC(=O)NC(=O)c2cc(F)c(F)cc2Cl)CC1 [Example 39] | – | – | 10 nM | –
21 | COC(=O)C1CCN(c2ccc(F)cc2NC(=O)NC(=O)c2ccc(F)cc2Cl)CC1 [Example 40] | – | 4.6% | – | –
22 | O=C(NC(=O)c1ccc(F)cc1Cl)Nc1cc(C(F)(F)F)ccc1N1CCC(C(=O)O)CC1 [Example 43] | – | – | – | 0.15%
23 | COC(=O)C1CCN(c2ccc(S(C)(=O)=O)cc2NC(=O)NC(=O)c2cc(F)c(F)cc2Cl)CC1 [Example 44] | – | 0.05% | – | –
24 | COC(=O)C1CCN(c2ccc(S(C)(=O)=O)cc2NC(=O)NC(=O)c2ccc(F)cc2Cl)CC1 [Example 45] | – | 0.8% | – | –
